For assay [1], the system named is limbal epithelial stem cells (LSCs). Briefly: In vitro LSC proliferation, BrdU pulse-labeling with ΔNp63α immunostaining. Format: cell-based, New Zealand white rabbits. Conditions: BrdU 2 hours; for percentage of BrdU and ΔNp63α-double positive cells per total ΔNp63α-positive cells: 25 nM peptide or 4.5 nM PEDF in medium, control medium 3.0±0.5%, mean±SEM. From the text:
LSCs were isolated from six-month-old New Zealand white rabbits and used for cell-suspension culture in accordance with the method previously described by Cheng et al. (The growth-promoting effect of KGF on limbal epithelial cells is mediated by upregulation of DeltaNp63alpha through the p38 pathway. J Cell Sci 2009; 122 (Pt 24): 4473-4480) and Wang et al. (Importin 13 serves as a potential marker for corneal epithelial progenitor cells. Stem Cells 2009; 27: 2516-2526) with a slight modification. Rabbit limbal tissues were washed in PBS containing 100 U/ml penicillin and 50 μg/ml gentamicin. After carefully removing the iris, and excessive sclera, the limbal rings were exposed to dispase II (1.2 IU/ml in Hanks' balanced salt solution free of Mg^2+ and Ca^2+) at 4° C. for 16 hours. The loosened epithelial sheets were removed with a cell scraper and separated into single cells by enzymatic digestion (0.05% trypsin, and 0.01% EDTA) for 15 min at 37° C. with gentle shaking and transferred to a stop medium (9 ml of HEPES-buffered DMEM containing 10% FBS). Cells were then collected by centrifugation (400×g for 5 min).
About 1×10^5 cells were seeded on each wells of a 6-well plate and incubated in a DMEM/Ham's F-12 basal medium (10 mM HEPES, 5 ng/ml human EGF, 1% SITE liquid medium, antibiotic-antimicotic solutions, 0.5% DMSO and 0.5 μg/ml hydrocortisone) supplemented with 10% FBS for 2 days, and then shifted to a basal medium or basal medium containing 4.5 nM PEDF, 25 nM 39-mer, 25 nM 34-mer, 25 nM 29-mer, 25 nM 25-mer, 25 nM 20-mer, 25 nM 18-mer, 25 nM Mo 29-mer or 25-nM Mo 20-mer. The cells were continued cultivated at 37° C. under 5% CO2 for another 3 days until they reached confluence (passage 0). LSCs were co-cultured with MMC-treated NIH-3T3 fibroblast feeder cells located within trans-well (0.4 μm pore, BD Biosciences, Bedford, Mass.). For passage purpose, near-confluent cells were harvested again by enzymatic treatment (i.e., 0.25% trypsin), and then 1×10^5 subcultured cells were further cultured in the respective medium, and proliferative capacity of cells was compared every 4 days after continuously culture-subculture (passage).
(§1) De-paraffinized tissue sections or 4% paraformaldehyde-fixed LSCs were blocked with 10% goat serum and 5% BSA in PBST (PBS containing 0.1% Tween-20) for 1 hour. Staining was done using primary antibodies against ΔNp63α (1:150 dilution), BrdU (1:250 dilution), and keratin-3 (1:250 dilution) at 37° C. for 2 hours, followed by incubation with the appropriate rhodamine- or FITC-conjugated donkey IgG (1:500 dilution) for 1 hour at RT. Nuclei were identified by counterstaining with Hoechst 33258 for 7 minutes. Images were captured using a Zeiss epifluorescence microscope with a CCD camera and photographs were taken by using the Axiovert software.
2×10^5 limbal cells (the 1st passage) were seeded at a slide coated with FNC COATING MIX® solution (Athena Enzyme Systems, Baltimore, Md.) and incubated with a culture medium for one day. BrdU (final, 10 μM) was added to the culture for 2 hours. After being fixed with 4% paraformaldehyde, cells were exposed to cold methanol for 2 minutes, and then treated with 1 N HCl at RT for 1 hour before performing immunofluorescence. For animal study, BrdU was reconstituted in DMSO as stock (80 mM). 10 μl of BrdU mixed with 90 μl of PBS was intraperitoneally injected into mouse 3 hours prior to euthanasia. DNA synthesis was assessed by BrdU labeling with anti-BrdU antibodies.

Assay [2] relates to LSCs in the limbus. Briefly: In vivo LSC proliferation in limbus 24 hours after corneal wounding, BrdU/ΔNp63α double-immunostaining. Also noted: species or system C57BL/6 mice. To be noted: peptide eye ointment, control 15.0±7.6%. How it is done:
as §1
2×10^5 limbal cells (the 1st passage) were seeded at a slide coated with FNC COATING MIX® solution (Athena Enzyme Systems, Baltimore, Md.) and incubated with a culture medium for one day. BrdU (final, 10 μM) was added to the culture for 2 hours. […] DNA synthesis was assessed by BrdU labeling with anti-BrdU antibodies. […]
Each synthetic peptide (the 39-mer, 34-mer, 29-mer, 25-mer, 20-mer, 18-mer, Mo 29-mer or Mo 20-mer) was reconstituted in DMSO as stock (5 mM) and mixed with TOBREX® eye ointment (Alcon; containing 0.3% Tobramycin and 0.5% Chlorobutanol) to a concentration 50 μM. […] Wound size was determined by staining with topical fluorescein (Fluor-I-Strip, Ayerst Laboratories, Philadelphia, Pa.) and photographed with a digital camera. […]

Assay [3] deals with Lgr6-positive HFSCs. The assay can be described thus: Distribution of Lgr6-positive HFSCs at HE tissue at day 4 post skin wounding, immunohistochemistry. Format: in vivo, C57L/B6 mice. Conditions: wounds treated for 4 days. From the text:
FIGS. 10A and 10B illustrate histological analysis of the distribution of HFSCs at day 4 post-skin wounding. FIG. 10A provides photographs in which specimens were immunehistologically stained with Lgr6 to observe HFSC-derived cells at HE tissue and counterstained with hematoxylin to observe nuclei. Original magnification, ×400. FIG. 10B presents photographs in which sections of 20-mer ointment-treated wound were stained with BrdU- and Lgr6-specific antibodies. Lgr6 is expressed in the cell nucleus as confirmed by Hoechst 33258 counterstaining.
To perform full-thickness skin excision, 8- to 10-week-old C57L/B6 mice were respectively anesthetized by an intraperitoneal injection of a mixture of zoletil (6 mg/kg) and xylazine (3 mg/kg). Two full-thickness skin excisional wounds, 4 mm in diameter were made on either side of the dorsal midline using Sklar Tru-Punch disposable biopsy punch (Sklar, West Chester, Pa., USA). In each treatment group (n=6), the skin wound was treated with 25 μl skin ointment (containing 50 μM synthetic peptide and 0.006 μl DMSO vehicle) once daily after the skin scraping. In the control group (n=6), skin wound was treated with 25 μl of skin ointment with equal concentration of DMSO. Each gram of the above skin ointment contains 5 mg neomycin sulfate and 12.5 mg Bacitracin Zinc. Wounds were left uncovered and harvested 4 and 7 days after injury. […]

Results on five sequences are retold here after US9617311B2, “Use of PEDF-derived polypeptides for promoting stem cells proliferation and wound healing” (Mackay Memorial Hospital, priority 2011, dated 2017).

EQRTESIIHRALYYDLIS [18-mer]: the “enhanced LSC proliferation versus control medium” value in assay [1] (25 nM peptide in medium) is “enhanced proliferation was not observed”.
As for “SLGAEHRTESVIHRALYYDL [Mo 20-mer, synthetic peptide derived from mouse PEDF]”, the “percentage of BrdU and ΔNp63α-double positive cells per total ΔNp63α-positive cells” value (from here on “percentage … per total ΔNp63α-positive cells”) in assay [1] was found to be 26.3±2.2%.
As for “SLGAEHRTESVIHRALYYDLITNPDIHST [Mo 29-mer, synthetic peptide derived from mouse PEDF]”, the “percentage … per total ΔNp63α-positive cells” value in assay [1] is 27.1±1.8%.
On to “SLGAEQRTESIIHRALYYDL [20-mer, synthetic peptide identical to residues 11-30 of the 39-mer]”, for which the “levels of BrdU- and ΔNp63α-positive cells in the limbus” value in assay [2] was 42.4±4.3%. Besides, the “Lgr6-positive cells at HE tissue versus control wound” value in assay [3] is recorded as “markedly increased”. Moreover, the “percentage … per total ΔNp63α-positive cells” value in assay [1] is recorded as 31.8±1.7%.
For the sequence “SLGAEQRTESIIHRALYYDLISSPDIHGT [29-mer, short synthetic PEDF peptide derived from the 39-mer]”, the “levels of BrdU- and ΔNp63α-positive cells in the limbus” value in assay [2] stood at 43.2±4.6%. Further, the “percentage … per total ΔNp63α-positive cells” value in assay [1] is reported as 33.9±2.6%.
